In patent publication US20050175719A1, “Procyanidins for treatment and prevention of enzymatic irritation to the skin” (priority 2004, published 2005):

System: trypsin
Experiment: Inhibition of trypsin-induced cleavage of fluorescent BODIPY FL casein (EnzChek protease assay kit)
Format: biochemical
From the text: The procedure of Example 1 was independently repeated using the procyanidin-containing grape seed extract and STI, respectively, at 0.1% concentration. In addition, the procedure of Example 1 was repeated on the five individual monomer units typically found in OPC, at up to three different concentration levels.

[1] = Table 4, concentration (w/w) 0.1 %
[2] = Table 4, concentration (w/w) 1 %
[3] = Table 4, concentration (w/w) 2.5 %

| Molecule | % trypsin inhibition [1] | % trypsin inhibition [2] | % trypsin inhibition [3] | trypsin inhibition activity (in words) (at concentrations up to 0.1%) | % trypsin inhibition (concentration 0.001 % (w/w)) | % trypsin inhibition (concentration 0.01 % (w/w)) | % trypsin inhibition (concentration 0.05 % (w/w)) |
| --- | --- | --- | --- | --- | --- | --- | --- |
| Oc1cc(O)c2c(c1)O[C@@H](c1ccc(O)c(O)c1)[C@@H](O)C2 [Epicatechin (+)] | 22% | – | – | – | – | – | – |
| Oc1cc(O)c2c(c1)OC(c1ccc(O)c(O)c1)C(O)C2 (stereo not drawn) [Catechin (+)] | 11% | 72% | 89% | – | – | – | – |
| Oc1cc(O)c2c(c1)OC(c1ccc(O)c(O)c1)C(O)C2 (racemic) [Catechin (+/−)] | 4.6% | 61% | 76% | – | – | – | – |
| Oc1cc(O)c2c(c1)O[C@H](c1ccc(O)c(O)c1)[C@H](O)C2 [Epicatechin (−)] | – | 71% | 90% | – | – | – | – |
| O=C1O[C@H]([C@@H](O)CO)C(O)=C1O [Vit C, Vitamin C] | – | – | – | no trypsin inhibition activity | −2% | 1% | −12% |
| Catechin (−) | 18% | 70% | 92% | – | – | – | – |
